Consider five compounds from patent US7754480B2, “Method of isolating stem cells” (Duke University, priority 1998, dated 2010).

Molecules are shown by their SMILES.

One data set has as its system ALDH in UCB cells. Description: BAAA staining of mononuclear umbilical cord blood (UCB) cells, flow cytometry. It counts as cell-based, human. The protocol:
Human umbilical cord blood (UCB), intended for disposal, was collected into sterile bottles containing anticoagulant citrate buffer. The UCB used in these studies were processed within 24 hours of being harvested. White cells were enriched through a preliminary red cell agglutination where the UCB was diluted 1:2 with Dulbecco's phosphate buffered saline (PBS) at room temperature. These cells were then brought to a final concentration of 1% Hespan (DuPont Pharma, Wilmington, Del.) and were left to stand undisturbed for 1 hour. Non-agglutinated white blood cells were harvested and residual red cells were hemolysed at 37° C. in 0.17 M NH4Cl containing 10 mM Tris-HCl, pH 7.2 and […] EDTA. The recovered cells were washed in IMDM containing 2% FCS and mononuclear cells are then purified using Ficoll-Hypaque (1.077 g/ml). When held overnight, the cells were kept on ice in a 4° C. refrigerated room in IMDM with 20% FCS.
Mononuclear UCB cells were resuspended at 10^6 cells/ml in IMDM containing 2% FCS and were labeled with 1 μM BAAA for 30 min. When used, verapamil was included at […]. After staining, the cells were washed with ice cold staining media and maintained on ice until their analysis and sorting. The cells were then resuspended in staining media with […] 7-aminoactinomycin D (7AAD) (Molecular Probes; Eugene, OR). For antibody staining to permit multiparameter analyses, the cells were resuspended in staining media (100 μl) and antibodies were added directly to the cell suspensions. The cells were incubated on ice for 20 min. and then washed again in ice cold staining media. The cells were then analyzed or sorted on a FAC Star Plus cell sorter (BDIS) equipped with dual Coherent I -90 argon-dye laser. The BAAA was excited at 488 nm and emissions were detected using 515 DF20filter in FL1. Dead and dying cells were excluded on the basis of their high emission in the far red wavelength due to their uptake of 7AAD.
Umbilical Cord Blood (UCB) was chosen for its increasing promise as a source for transplantable hematopoietic stem cells. […]
In general terms: Flow cytometry measures light scatter and fluorescence of single cells or particles in a stream.

Data set [1] relates to human ALDH1 in K562 cells. The experiment in a line: BAAA staining of K562 cells expressing ALDH1. It counts as cell-based. The protocol: (§1) K562, L1210 and L1210/cpa cells (ATCC) were maintained in suspension in RPMI 1640 media supplemented with 10% Fetal Calf Serum (FCS) and 5×10^−5 M β-mercaptoethanol.
Multiple different ALDH isoenzymes exist and these may display different abilities to convert BAAA. […] Therefore, a human cell line known to express ALDH1, K562, was assayed with this novel reagent.

A further data set concerns ALDH in L1210/cpa cells. The experiment in a line: BAAA staining of cyclophosphamide-resistant ALDH+ L1210/cpa cells, flow cytometry. Format: cell-based, murine.
Excerpt: (§2) FIGS. 1A-1D. BAAA staining identifies cells with high levels of ALDH activity. L1210/cpa is a derivative of the L1210 leukemic cell line that overexpresses ALDH. (FIGS. 1A and 1B represent L1210 cells, plus DEAB and minus DEAB, respectively; FIGS. 1C and 1D represent L1210/cpa cells, plus and minus DEAB, respectively).
as §1
(§3) To assay whether BAAA would permit the specific selection of ALDH^+ cells, studies initially determined an optimal response dose for the BAAA reagent in a murine cell line previously selected for cylophoshamide-resistance, L1210/cpa, that is known to be ALDH^+ (FIG. 1). The parental cell line, L1210 (FIGS. 1A and 1B) is cylophosphamide-sensitive and ALDH^−. […] In these studies, the BAAA could be used at a final concentration as low as 5 μM. This molar concentration is 10-fold lower than that used with the dansylated reagent.

In data set [2] the test system is MDR efflux pump in UCB cells. Description: Efflux of converted BAAA from UCB cells with or without verapamil. The settings on record: product of the ALDH conversion of BAAA.
Method: When used, verapamil was included at 50 mM. After staining, the cells were washed with ice cold staining media and maintained on ice until their analysis and sorting. The cells were then resuspended in staining media with 10 mg/ml 7-aminoactinomycin D (7AAD) (Molecular Probes; Eugene, OR). For antibody staining to permit multiparameter analyses, the cells were resuspended in staining media (100 μl) and antibodies were added directly to the cell suspensions. The cells were incubated on ice for 20 min. and then washed again in ice cold staining media. The cells were then analyzed or sorted on a FAC Star Plus cell sorter (BDIS) equipped with dual Coherent I -90 argon-dye laser. […] Dead and dying cells were excluded on the basis of their high emission in the far red wavelength due to their uptake of 7AAD.
Since this reagent had never been previously characterized, the susceptibility of converted BAAA to MDR efflux was assayed. Although BODIPY aminoacetaldehyde passes through the cell membrane without active transport, the product of the ALDH conversion (BODIPY aminoacetate) might well be a substrate for the MDR pump.
Data set [3] in a line: Stability of BODIPY aminoacetaldehyde diethyl acetal on storage and in 1 N HCl. Format: physicochemical. On the procedure:
The aldehyde dehydrogenase substrate is prepared as BODIPY aminoacetaldehyde diethyl acetal and lyophilized in 0.5 micromole aliquots. […] The acetal is then solubilized in DMSO to a final concentration of 5 mM. […] To convert the acetal to an acetaldehyde, aliquots of this solution are brought to a final concentration of 1 N HCl. […] After 2 hours in 1 N HCl, the vast majority of the BODIPY aminoacetaldehyde diethyl acetal has converted to BODIPY aminoacetaldehyde (BAAA), and is then diluted to […] in Dulbecco's phosphate buffered saline (PBS). This stock is added directly to cells prepared in Iscove's Modified Dulbecco's Medium (IMDM) with 2% FCS at concentrations ranging from 1 to 5 μM.)(See also FIG. 6.).

Data set [4] deals with human hematopoietic cells. The experiment in a line: Preliminary DAAA staining of human hematopoietic cells, flow cytometry. Conditions: signal intensity too high in flow cytometry. Format: cell-based. The source says: Preliminary studies using DAAA indicate that this reagent is unusable on preparations of human hematopoietic cells because the signal intensity of the reagent is too high to resolve discrete cell populations by flow cytometry. The present invention provides a fluorescent ALDH substrate that is free of the problems associated with DAAA and that can be used in the purification of primitive human hematopoietic cells.

The test system of a further data set is L1210 cells. The experiment in a line: BAAA staining of parental ALDH- L1210 cells, flow cytometry. It counts as cell-based, murine. The settings on record: cyclophosphamide-sensitive parental L1210.
Excerpt: as §2, §1, §3

Data set [5] is described as follows: Solubility and membrane permeability of the aldehyde reagent (BAAA). Format: physicochemical. The protocol: Due to the inherent instability of aldehydes in aqueous solution, the reagent is prepared and stored as an acetal. […] Intracellular fluorescence can be used to select cells.

Turning to `CCN(CC)c1ccc(C=O)cc1` [DEAB, diethylbenzaldehyde, reference compound], the “inhibition of the BAAA response” value in the data set with ALDH in UCB cells (excess DEAB, UCB cells) is listed as “inhibited”; in data set [1], “entirely inhibited”. The “block of the BAAA fluorescent response” value in the data set on ALDH in L1210/cpa cells (10-fold molar excess of DEAB, L1210/cpa) was “totally blocked”.

In the case of `CC1=CC(C)=[N+]2C1=Cc1ccc(CCC(=O)NCC(=O)O)n1[B-]2(F)F` [BODIPY Aminoacetate, BODIPY aminoacetate], the “substrate status for the MDR efflux pump” value in data set [2] is recorded as “Substrate for the MDR Efflux Pump”.

`CCOC(CNC(=O)CCC1=[N+]2C(=Cc3c(C)cc(C)n3[B-]2(F)F)C=C1)OCC` [BODIPY aminoacetaldehyde diethyl acetal]: in data set [3] (5 mM in DMSO at 4° C.), the “stability of solution in DMSO” value is “up to 1 week”. The “half life of the acetal” value in data set [3] (1 N HCl, conversion to the acetaldehyde) was determined as 15 min. Further, in data set [3] (lyophilized 0.5 micromole aliquots stored at -20° C.), the “stability of lyophilized aliquots” value was “stable indefinitely”.

As for `CN(C)c1cccc2c(S(=O)(=O)NCC=O)cccc12` [DAAA, dansyl aminoacetaldyde], in data set [4], the “usability for resolving discrete cell populations” value is reported as “unusable”.

For `Cc1cc(C)n2c1C=C1C=CC(CCC(=O)NCC=O)=[N+]1[B-]2(F)F` [BAAA, BODIPY aminoacetaldehyde], in the data set on ALDH in UCB cells (1 μM BAAA vs concentration of DAAA used for murine PHSC), the “molar concentration relative to dansyl aminoacetaldehyde (fold lower)” value was found to be 50 fold. The “optimal concentration for resolving ALDH^br subpopulations” value in the data set with ALDH in UCB cells (UCB cells 10^6 cells/ml, IMDM 2% FCS) came out at 1 µM. Moreover, in data set [1], the “conversion of BAAA / ALDH positivity” value was “positive for ALDH”. The “fluorescent response to BAAA” value in the data set with L1210 cells was “essentially no response”. Besides, the “molar concentration relative to the dansylated reagent (fold lower)” value in the data set on ALDH in L1210/cpa cells (5 μM BAAA vs dansylated reagent) is on record as 10 fold. The “detection of ALDH+ cells” value in the data set with ALDH in L1210/cpa cells (L1210/cpa) is reported as “able to detect ALDH^+ cells”. Moreover, the “lowest usable final concentration” value in the data set on ALDH in L1210/cpa cells (continuous cell lines) came to 5 µM. The “solubility in PBS” value in data set [5] is “freely soluble”.
